Consider 15 molecules from patent publication US9555071B2, “Methods and compositions for the treatment of axonal and neuronal degeneration” (priority 2012, dated 2017).

A word on the EC50: it is the concentration that produces a half-maximal response.

The test system of one series is Trembler J mice. Nature of the series: Trembler J mice, model of Charcot-Marie-Tooth type 1. In kind it is in vivo. As to conditions: intravenous or intraperitoneal daily injection. An excerpt:
(§1) Similar findings were also seen in other murine models such as Trembler J mice, a murine model of Charcot-Marie-Tooth type 1, MOG-EAE mice, model of multiple sclerosis with significant axonal loss, and Streptozotocin-induced diabetic mouse model. […] Application of the RGD peptide allowed the diseased mice to have a normal or near normal phenotype similar to untreated wild-type animals.
(§2) Similar findings were also seen in other murine models including (1) Trembler J mice, a murine model of Charcot-Marie-Tooth type 1, (2) MOG-EAE mice, model of multiple sclerosis with significant axonal loss, and (3) Streptozotocin-induced diabetic mouse model. […] The RGD peptide allowed the diseased mice to have a normal or near normal phenotype similar to untreated wild-type animals.

Series [1] has as its system Streptozotocin-induced diabetic mouse model. Nature of the series: Streptozotocin-induced diabetic mouse model. Conditions: intravenous or intraperitoneal daily injection. The format is in vivo.
Text: as §1, §2

The next series concerns MOG-EAE mice. The series is described as follows: MOG-EAE mice, model of multiple sclerosis. In kind it is in vivo. As to conditions: intravenous or intraperitoneal daily injection.
Text: as §1, §2

Series [2] has as its system dorsal root ganglion (DRG) explants. The series is described as follows: Axonal protection of DRG explants exposed to vincristine. The format is cell-based. The procedure:
Panels A to D are representative images of dorsal root ganglion (DRG) explants after exposure to 50 nM vincristine at 0 and 60 hours. Explants in panels A and B were treated with 50 nM vincristine and 0.5 μg/ml peptide while those in panels C and D were treated with vincristine alone.
DRG explants were exposed to 50 nM vincristine. Explants in panels A and B were treated with 50 nM vincristine and 0.5 μg/ml RGD peptide while those in panels C and D were treated with vincristine alone. […] The cyclo-GRGDSP (SEQ ID NO:3) peptide potently promoted axonal survival in cell culture with EC50=0.5 μM (FIG. 1.E).

A short description of series [3]: Bioavailability and bio-distribution by LC-QTOF mass spectrometer. The format is in vivo, C57B1 mice. As to conditions: intraperitoneal 1 μg/g. As to the method: In contrast, there was no decrease with the co-administration of the peptide (n=10 mice).
To test the bioavailability and bio-distribution of the RGD peptides in vivo, C57B1 mice were given intraperitoneal injection of 1 μg/g weight of cylco-GRGDSP (SEQ ID NO:3) in normal saline (1 mg/ml). The mice were sacrificed at 30, 60, 120, and 240 minutes. Blood, brain, skin, muscle, and tibial and sciatic nerves were collected. The presence of the peptide was detected using LC-QTOF mass spectrometer.

Series [4] has as its system acrylamide intoxicated MAG−/− mice. Nature of the series: Acrylamide-induced axonal degeneration in MAG−/− mice. Conditions: for severe gait instability / axonal swelling, beading and segmentation of Aβ fibers in the skin / neuromuscular junction morphology: daily intraperitoneal injection; for severe gait instability: acrylamide for 10 days; for axonal swelling, beading and segmentation of Aβ fibers in the skin / neuromuscular junction morphology: acrylamide, FIG. 2E; for change in amplitudes of CMAP: electrophysiological testing, FIG. 2D. In kind it is in vivo. From the text: Furthermore, the RGD peptides can also prevent axonal and/or neuronal degeneration in vivo. See Example 3. Administration of acrylamide, a well characterized toxin, causes axonal “dying back” or degeneration without lymphocytic inflammatory response (Schaumburg et al., 1974, Ko et al., 2000; Ewaleifoh et al, 2012) in wild-type and MAG knockout mice. […] The acrylamide treated MAG−/− mice developed more rapid and severe motor impairment. Most mice fell off the rod even during pretraining and had profound decline in the retention time on the Rotarod (FIG. 2B). There was a decrease in amplitudes of CMAP (FIG. 2.D). […] The neuromuscular junction morphology was normal. On gross observation, there was only mild gait unsteadiness. […] Thus, the RGD peptide was able to prevent significant axonal degeneration that is typically seen in MAG−/− mice treated with acrylamide.
To test that RGD peptides may prevent axonal degeneration in a murine model, acrylamide, a well characterized toxin causing axonal “dying back” or degeneration without lymphocytic inflammatory response (Schaumburg et al., 1974, Ko et al., 2000, Ewaleifoh et at, 2012), was administered to wild-type and MAG−/− mice. When MAG knockout mice at 6 weeks of age were exposed to acrylamide for 10 days, there was markedly impaired gait with marked sensory ataxia and spreading of the toes of the hind limbs. The acrylamide treated MAG−/− mice developed more rapid and severe motor impairment. Most mice fell off the rod even during pretraining and had profound decline in the retention time on the Rotarod (FIG. 2B). There was a 68% decrease in amplitudes of CMAP (FIG. 2.D).
The neuromuscular junction morphology was normal (FIG. 2E). On gross observation, there was only mild gait unsteadiness.

Series [5] deals with postnatal (P4-5) dorsal root ganglion (DRG) and cerebrocortical neurons. Nature of the series: Prevention of axonal/neuronal death in cultured neurons. As to conditions: in vitro; peptides in linear as well as cyclo forms; FIG. 1. The format is cell-based. As to the method: Several small RGD peptides containing RGD sequence were generated and their axonal protective effect was tested. The RGD peptides included RGDYK (SEQ ID NO:1), GRGDS (SEQ ID NO:2), FRGDLG (SEQ ID NO:4), FRGDSP (SEQ ID NO:9), IRGDSP (SEQ ID NO:15), RRGDQT (SEQ ID NO:5), KRGDNF (SEQ ID NO:6), PRGDLT (SEQ ID NO:7) in linear as well as cyclo forms.

The next series deals with β1-integrin receptor. Nature of the series: Blocking of the peptide's axonal protection by integrin antagonists. The format is cell-based. An excerpt: The RGD motif is known to bind to the integrin receptor. The addition of the peptides of the present invention to primary DRG neuronal cultures induced rapid phosphorylation of neurofilament (NFH), change in NAD synthase nicotinamide mononucleotide adenylyltransferase (NMNAT) expression, and focal adhesion kinase (FAK), an integrin-linked kinase, at the tyrosine 397 residue (Y397), which are indicative of integrin binding to a ligand. Co-administration of echistatin or specific function-blocking antibody to β1-integrin abolished the axonal/neuronal protective ability of the peptide. See Example 1.
The protective effect of the […] peptides was dependent upon their ability to bind to β1-integrin receptor. […] Co-administration of specific function-blocking antibody to β1-integrin abolished the axonal protective ability of the GRGDSP (SEQ ID NO:3) peptide.

A further series deals with axons. Conditions: insults such as vincristine, acrylamide, inflammatory mediators; Nguyen et al., 2009; cited from earlier work.
[6] abbreviates: sampled 30, 60, 120, 240 minutes.

In the case of `N=C(N)NCCC[C@@H]1NC(=O)CNC(=O)[C@@H]2CCCN2C(=O)[C@H](CO)NC(=O)[C@H](CC(=O)O)NC(=O)CNC1=O` [cyclo-GRGDSP], the “axonal/neuronal degeneration and behavioral deficits” value in the series on Trembler J mice is given as “almost completely abolished”. Further, the “axonal/neuronal degeneration and behavioral deficits” value in [1] is recorded as “almost completely abolished”. Also, the “axonal/neuronal degeneration and behavioral deficits” value in the series on MOG-EAE mice is reported as “almost completely abolished”. Moreover, the half-maximal effective concentration (EC50) in series [2] (DRG explants exposed to 50 nM vincristine, FIG. 1E, read-out: EC50, axonal survival in cell culture) was 500 nM. Moreover, the “neuronal death (TUNEL-positive cells)” value in series [2] (associated with axonal protection, FIG. 1F) was “marked decreased in neuronal death”. Besides, the “peptide detected in sciatic nerves” value in series [3] (all time points up to 4 hours, FIG. 2A) is “detected in high concentration”. In addition, in series [3] (setting [6]), the “peptide detected in plasma” value is listed as “detected” and the “peptide levels in brain” value is listed as “only evident in the first hour”. In [4], the severe gait instability entry was “largely prevented”; the “axonal swelling, beading and segmentation of Aβ fibers in the skin” value (“axonal swelling” for short) was “largely prevented”; the neuromuscular junction morphology entry is given as “normal”; the “change in amplitudes of CMAP” value is “little to no change”.
Take “FRGDLG: RGD peptide, amino acid sequence FRGDLG (Synthetic Peptide, Linear or Cyclo)”: the “stabilize the axon and prevent axonal/neuronal death” value in series [5] is “sufficient to stabilize the axon and to prevent axonal/neuronal death”.
The same measure, in the same setting: the value for “FRGDSP: RGD peptide, amino acid sequence FRGDSP (Synthetic Peptide, Linear or Cyclo)” was “sufficient to stabilize the axon and to prevent axonal/neuronal death”.
Same read-out and setting: the value for “GRGDS: RGD peptide, amino acid sequence GRGDS (Synthetic Peptide, Linear or Cyclo)” was “sufficient to stabilize the axon and to prevent axonal/neuronal death”.
Take “GRGDSP: RGD peptide, amino acid sequence GRGDSP”: the “axonal protective ability of the peptide” value in the series on β1-integrin receptor (co-administration of specific function-blocking antibody to β1-integrin) was “abolished”.
“IRGDSP: RGD peptide, amino acid sequence IRGDSP (Synthetic Peptide, Linear or Cyclo)”: the “stabilize the axon and prevent axonal/neuronal death” value in series [5] is “sufficient to stabilize the axon and to prevent axonal/neuronal death”.
Same read-out and setting: the value for “KRGDNF: RGD peptide, amino acid sequence KRGDNF (Synthetic Peptide, Linear or Cyclo)” was “sufficient to stabilize the axon and to prevent axonal/neuronal death”.
On the same count and under the same terms, the entry for “PRGDLT: RGD peptide, amino acid sequence PRGDLT (Synthetic Peptide, Linear or Cyclo)” is “sufficient to stabilize the axon and to prevent axonal/neuronal death”.
Still for that read-out and setting: the entry for “RGDYK: RGD peptide, amino acid sequence RGDYK (Synthetic Peptide, Linear or Cyclo)” is “sufficient to stabilize the axon and to prevent axonal/neuronal death”.
Regarding “RRGDQT: RGD peptide, amino acid sequence RRGDQT (Synthetic Peptide, Linear or Cyclo)”, in series [5], the “stabilize the axon and prevent axonal/neuronal death” value was “sufficient to stabilize the axon and to prevent axonal/neuronal death”.
“cyclo-FRGDLP: cyclic RGD peptide of sequence FRGDLP (SEQ ID NO:8) (cyclic; Synthetic Peptide, Linear or Cyclo)”: in series [4], the severe gait instability result was “largely prevented”; the “axonal swelling” value is recorded as “largely prevented”; the neuromuscular junction morphology entry is listed as “normal”; the “change in amplitudes of CMAP” value is on record as “little to no change”.
With “cyclo-FRGDSP: cyclic RGD peptide of sequence FRGDSP (SEQ ID NO:9) (cyclic; Synthetic Peptide, Linear or Cyclo)”, in series [4], the severe gait instability entry is listed as “largely prevented”; the “axonal swelling” value was “largely prevented”; the neuromuscular junction morphology result was “normal”; the “change in amplitudes of CMAP” value is “little to no change”.
For “cyclo-IRGDSP: cyclic RGD peptide of sequence IRGDSP (SEQ ID NO:15) (cyclic; Synthetic Peptide, Linear or Cyclo)”, in the series with Trembler J mice, the “axonal/neuronal degeneration and behavioral deficits” value is recorded as “almost completely abolished”. Also, in series [1], the “axonal/neuronal degeneration and behavioral deficits” value is given as “almost completely abolished”. The “axonal/neuronal degeneration and behavioral deficits” value in the series on MOG-EAE mice was “almost completely abolished”. Besides, in series [4], the severe gait instability entry is on record as “largely prevented”; the “axonal swelling” value is “largely prevented”; the neuromuscular junction morphology result is recorded as “normal”; the “change in amplitudes of CMAP” value is listed as “little to no change”.
Consider echistatin [reference compound], for which the “effect of co-administered blocker on axonal/neuronal protective ability of the peptide” value in the series on β1-integrin receptor (co-administration with RGD peptide) was “abolished”.

B1: MAG: transmembrane glycoprotein containing five Ig-like domains; adhesion molecule of the immunoglobin superfamily (protein, UniProt P20916 20-626, looked up)
Myelin-associated glycoprotein: GHWGAWMPSSISAFEGTCVSIPCRFDFPDELRPAVVHGVWYFNSPYPKNYPPVVFKSRTQVVHESFQGRSRLLGDLGLRNCTLLLSNVSPELGGKYYFRGDLGGYNQYTFSEHSVLDIVNTPNIVVPPEVVAGTEVEVSCMVPDNCPELRPELSWLGHEGLGEPAVLGRLREDEGTWVQVSLLHFVPTREANGHRLGCQASFPNTTLQFEGYASMDVKYPPVIVEMNSSVEAIEGSHVSLLCGADSNPPPLLTWMRDGTVLREAVAESLLLELEEVTPAEDGVYACLAENAYGQDNRTVGLSVMYAPWKPTVNGTMVAVEGETVSILCSTQSNPDPILTIFKEKQILSTVIYESELQLELPAVSPEDDGEYWCVAENQYGQRATAFNLSVEFAPVLLLESHCAAARDTVQCLCVVKSNPEPSVAFELPSRNVTVNESEREFVYSERSGLVLTSILTLRGQAQAPPRVICTARNLYGAKSLELPFQGAHRLMWAKIGPVGAVVAFAILIAIVCYITQTRRKKNVTESPSFSAGDNPPVLFSSDFRISGAPEKYESERRLGSERRLLGLRGEPPELDLSYSHSDLGKRPTKDSYTLTEELAEYAEIRVK
Take B1: the “axonal survival / prevention of axonal degeneration caused by vincristine” value in the series on axons is “promotes axonal survival”.
